Reference: PubChem BioAssay (NCI)
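In this assay, cells in 96-well plates receive the compound at five concentrations for 48 hours. Endpoints are linearly interpolated between the surrounding concentrations. Abbreviation: GI50, concentration required for 50% inhibition of growth. TGI: total growth inhibition.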

Key:
Assay in all cases: NCI tumour cell line growth inhibition, 48 h
HCC-2998 colon = test system: HCC-2998 colon
SK-MEL-28 melanoma = test system: SK-MEL-28 melanoma
HCT-116 colon = test system: HCT-116 colon
M14 melanoma = test system: M14 melanoma
UACC-257 melanoma = test system: UACC-257 melanoma
NCI-H460 lung = test system: NCI-H460 lung
SK-MEL-5 melanoma = test system: SK-MEL-5 melanoma
HOP-92 NSCLC = test system: HOP-92 NSCLC
K-562 leukemia = test system: K-562 leukemia
DMS 114 small cell lung = test system: DMS 114 small cell lung
RXF-631 renal = test system: RXF-631 renal
RXF 393 renal = test system: RXF 393 renal
KM20L2 colon = test system: KM20L2 colon
EKVX NSCLC = test system: EKVX NSCLC
SNB-75 CNS = test system: SNB-75 CNS
COLO 205 colon = test system: COLO 205 colon
SR leukemia = test system: SR leukemia
HL-60(TB) leukemia = test system: HL-60(TB) leukemia
HOP-62 NSCLC = test system: HOP-62 NSCLC
HCT-15 colon = test system: HCT-15 colon
MALME-3M melanoma = test system: MALME-3M melanoma
OVCAR-3 ovarian = test system: OVCAR-3 ovarian
CAKI-1 renal = test system: CAKI-1 renal
LOX IMVI melanoma = test system: LOX IMVI melanoma
DLD-1 colon = test system: DLD-1 colon
NCI-H522 lung = test system: NCI-H522 lung
DMS 273 small cell lung = test system: DMS 273 small cell lung
U251 CNS = test system: U251 CNS
A549 NSCLC = test system: A549 NSCLC
SNB-78 CNS = test system: SNB-78 CNS
KM12 colon = test system: KM12 colon
SN12C renal = test system: SN12C renal
NCI-H226 lung = test system: NCI-H226 lung
A498 renal = test system: A498 renal
HT29 colon = test system: HT29 colon
SK-MEL-2 melanoma = test system: SK-MEL-2 melanoma
SF-539 CNS = test system: SF-539 CNS
786-0 renal = test system: 786-0 renal
OVCAR-5 ovarian = test system: OVCAR-5 ovarian
ACHN renal = test system: ACHN renal
MOLT-4 leukemia = test system: MOLT-4 leukemia
SK-OV-3 ovarian = test system: SK-OV-3 ovarian
TK-10 renal = test system: TK-10 renal
NCI-H23 lung = test system: NCI-H23 lung
LXFL 529 NSCLC = test system: LXFL 529 NSCLC
SNB-19 CNS = test system: SNB-19 CNS
XF 498 CNS = test system: XF 498 CNS
UACC-62 melanoma = test system: UACC-62 melanoma
OVCAR-8 ovarian = test system: OVCAR-8 ovarian
IGROV1 ovarian = test system: IGROV1 ovarian
SW-620 colon = test system: SW-620 colon
HOP-18 NSCLC = test system: HOP-18 NSCLC
SF-295 CNS = test system: SF-295 CNS
M19-MEL melanoma = test system: M19-MEL melanoma
RPMI-8226 leukemia = test system: RPMI-8226 leukemia
CCRF-CEM leukemia = test system: CCRF-CEM leukemia
SF-268 CNS = test system: SF-268 CNS
OVCAR-4 ovarian = test system: OVCAR-4 ovarian
UO-31 renal = test system: UO-31 renal
BT-549 breast = test system: BT-549 breast
HS 578T breast = test system: HS 578T breast
DU-145 prostate = test system: DU-145 prostate
MDA-MB-435 = test system: MDA-MB-435
PC-3 prostate = test system: PC-3 prostate
MCF7 breast = test system: MCF7 breast
NCI/ADR-RES ovarian = test system: NCI/ADR-RES ovarian
T-47D breast = test system: T-47D breast
MDA-MB-231 breast = test system: MDA-MB-231 breast

CCCCCCCCCCCCC(CC)CCCCC(=O)O (stereo unspecified)
TGI (HCC-2998 colon): > 100 µM | TGI (SK-MEL-28 melanoma): > 100 µM | TGI (HCT-116 colon): > 100 µM | TGI (M14 melanoma): > 100 µM | TGI (UACC-257 melanoma): > 100 µM | TGI (NCI-H460 lung): > 100 µM | TGI (SK-MEL-5 melanoma): > 100 µM | TGI (HOP-92 NSCLC): > 100 µM | TGI (K-562 leukemia): > 100 µM | TGI (DMS 114 small cell lung): > 100 µM | TGI (RXF-631 renal): > 100 µM | TGI (RXF 393 renal): > 86.8 µM | TGI (KM20L2 colon): > 100 µM | TGI (EKVX NSCLC): > 100 µM | TGI (SNB-75 CNS): > 100 µM | TGI (COLO 205 colon): > 100 µM | TGI (SR leukemia): > 100 µM | TGI (HL-60(TB) leukemia): > 90.4 µM | TGI (HOP-62 NSCLC): > 100 µM | TGI (HCT-15 colon): > 100 µM | TGI (MALME-3M melanoma): > 100 µM | TGI (OVCAR-3 ovarian): > 100 µM | TGI (CAKI-1 renal): > 100 µM | TGI (LOX IMVI melanoma): > 100 µM | TGI (DLD-1 colon): > 100 µM | TGI (NCI-H522 lung): > 100 µM | TGI (DMS 273 small cell lung): > 100 µM | TGI (U251 CNS): > 67.8 µM | TGI (A549 NSCLC): > 100 µM | TGI (SNB-78 CNS): > 100 µM | TGI (KM12 colon): > 100 µM | TGI (SN12C renal): > 100 µM | TGI (NCI-H226 lung): > 100 µM | TGI (A498 renal): > 100 µM | TGI (HT29 colon): > 100 µM | TGI (SK-MEL-2 melanoma): > 100 µM | TGI (SF-539 CNS): > 59.2 µM | TGI (786-0 renal): > 100 µM | TGI (OVCAR-5 ovarian): > 100 µM | TGI (ACHN renal): > 100 µM | TGI (MOLT-4 leukemia): 69.7 µM | TGI (SK-OV-3 ovarian): > 100 µM | TGI (TK-10 renal): > 100 µM | TGI (NCI-H23 lung): > 100 µM | TGI (LXFL 529 NSCLC): > 100 µM | TGI (SNB-19 CNS): > 100 µM | TGI (XF 498 CNS): > 100 µM | TGI (UACC-62 melanoma): > 100 µM | TGI (OVCAR-8 ovarian): > 100 µM | TGI (IGROV1 ovarian): > 100 µM | TGI (SW-620 colon): > 100 µM | TGI (HOP-18 NSCLC): > 100 µM | TGI (SF-295 CNS): > 100 µM | TGI (M19-MEL melanoma): > 100 µM | TGI (RPMI-8226 leukemia): > 100 µM | TGI (CCRF-CEM leukemia): 67.6 µM | TGI (SF-268 CNS): > 100 µM | TGI (OVCAR-4 ovarian): > 100 µM | TGI (UO-31 renal): > 100 µM

Oc1ccc2c(c1)OCC1(O)Cc3cc(O)c(O)cc3C21 (stereo unspecified)
TGI (HCC-2998 colon): 36 µM | GI50 (BT-549 breast): 14.8 µM | TGI (BT-549 breast): 28 µM | TGI (SK-MEL-28 melanoma): 32.2 µM | GI50 (HS 578T breast): 20.4 µM | TGI (HS 578T breast): 46.9 µM | TGI (HCT-116 colon): 42.4 µM | TGI (M14 melanoma): 36.2 µM | TGI (UACC-257 melanoma): 34.4 µM | TGI (NCI-H460 lung): 37.2 µM | TGI (SK-MEL-5 melanoma): 34.2 µM | GI50 (DU-145 prostate): 10.7 µM | TGI (DU-145 prostate): 22.5 µM | GI50 (MDA-MB-435): 14.8 µM | TGI (MDA-MB-435): 28.1 µM | TGI (HOP-92 NSCLC): 37.6 µM | TGI (K-562 leukemia): > 82.6 µM | TGI (DMS 114 small cell lung): 73.5 µM | TGI (RXF-631 renal): > 77.3 µM | TGI (RXF 393 renal): 29.7 µM | TGI (KM20L2 colon): > 63 µM | TGI (EKVX NSCLC): 45.9 µM | TGI (SNB-75 CNS): 67.8 µM | TGI (COLO 205 colon): 45.4 µM | TGI (SR leukemia): 99.3 µM | TGI (HL-60(TB) leukemia): 78.3 µM | TGI (HOP-62 NSCLC): > 73.6 µM | TGI (HCT-15 colon): 44.2 µM | TGI (MALME-3M melanoma): 32.4 µM | GI50 (PC-3 prostate): 18.1 µM | TGI (PC-3 prostate): 39.4 µM | TGI (OVCAR-3 ovarian): 30 µM | TGI (CAKI-1 renal): 32.8 µM | TGI (LOX IMVI melanoma): 37.2 µM | TGI (DLD-1 colon): 33.9 µM | GI50 (MCF7 breast): 18.4 µM | TGI (MCF7 breast): 36 µM | TGI (NCI-H522 lung): 46.7 µM | TGI (DMS 273 small cell lung): > 100 µM | TGI (U251 CNS): 39.9 µM | TGI (A549 NSCLC): > 74.6 µM | TGI (SNB-78 CNS): 20 µM | TGI (KM12 colon): 69.2 µM | GI50 (NCI/ADR-RES ovarian): 29.6 µM | TGI (NCI/ADR-RES ovarian): 97.9 µM | TGI (SN12C renal): 51.1 µM | TGI (NCI-H226 lung): > 65.2 µM | TGI (A498 renal): 39 µM | TGI (HT29 colon): 46.5 µM | TGI (SK-MEL-2 melanoma): 62.2 µM | TGI (SF-539 CNS): 36.8 µM | TGI (786-0 renal): 34.9 µM | TGI (OVCAR-5 ovarian): 59.7 µM | TGI (ACHN renal): 32.7 µM | TGI (MOLT-4 leukemia): 72.9 µM | TGI (SK-OV-3 ovarian): > 79.5 µM | TGI (TK-10 renal): 31.2 µM | TGI (NCI-H23 lung): 33.4 µM | TGI (LXFL 529 NSCLC): 34 µM | TGI (SNB-19 CNS): 73 µM | TGI (XF 498 CNS): 28.8 µM | TGI (UACC-62 melanoma): 41.9 µM | TGI (OVCAR-8 ovarian): 44.2 µM | TGI (IGROV1 ovarian): > 73.6 µM | TGI (SW-620 colon): 40.5 µM | TGI (HOP-18 NSCLC): 32.3 µM | TGI (SF-295 CNS): > 68.3 µM | TGI (M19-MEL melanoma): > 86 µM | TGI (RPMI-8226 leukemia): 85.1 µM | GI50 (T-47D breast): 19.6 µM | TGI (T-47D breast): 54.4 µM | TGI (CCRF-CEM leukemia): 82.8 µM | GI50 (MDA-MB-231 breast): 13 µM | TGI (MDA-MB-231 breast): 26 µM | TGI (SF-268 CNS): > 68.2 µM | TGI (OVCAR-4 ovarian): 35.3 µM | TGI (UO-31 renal): > 100 µM
